Measurements as given in US7365096B2, “Methods for selectively inhibiting Janus tyrosine kinase 3 (Jak3)” (Board of Regents, The University of Texas System, priority 2002, dated 2008).
“Also recorded” adds a separate entry of the source. Like-named read-outs stand apart in the source and are kept apart here.

Assays:
Stat5a/b = Stat5a/b DNA binding, EMSA in PHA activated T-cells; format: cell-based, human; settings: increasing concentrations
Experimental: EMSA. Electrophoretic mobility shift assay (EMSA). Drug or vehicle control (DMSO) treated cells were pelleted by centrifugation (20,000×g for 1 min at 4° C.) and subsequently washed in five volumes of 10 mM HEPES, pH 7.9, 10 mM KCl, 1.5 mM MgCl2, 0.5 mM DTT, […], 5 μg/ml aprotinin, 1 μg/ml pepstatin A and 2 μg/ml leupeptin, centrifuged, then lysed in the same buffer supplemented with 1% NP-40 and incubated for 20 min on ice. The nuclei-containing pellet was resuspended in equal volumes of low salt buffer (10 mM HEPES, 25% glycerol, 1.5 mM MgCl2, 20 mM KCl, 0.5 mM DTT, 0.2 mM EDTA and protease inhibitors) and high salt buffer (low salt buffer containing 800 mM KCl). This fraction was then isolated by centrifugation at 4° C. for 10 min and supernatants saved as nuclear protein extract and stored at −70° C. Gel mobility shift assays were performed to detect Stat5a/b DNA binding activity using a Stat5 DNA binding sequence corresponding to the promoter of the β-casein gene (5′-[…]-3′) or an NF-kB binding element (5′-[…]-3′). Both probes were end-labeled with [^32P]dATP. […]
In FIG. 9A, it can be seen that NC1153 inhibits Jak3 driven transcription factor-Stat5a/b in PHA activated T-cells treated with increasing concentrations of NC1153 in a dose dependent manner as measured via EMSA analysis (upper panel). […]

[1] = Oral bioavailability estimated from allograft survival p.o. versus i.v.; settings: ACI, rat, in vivo, 80 mg/kg p.o. gave similar survivals as 10 mg/kg i.v.
Experimental: To test the in vivo effects, recipients of kidney allografts were treated with 649641P (NC1153) for 7 days beginning immediately after transplantation. […] A mean survival time (MST) and SD was calculated for each group from 5-6 experiments.

[2] = rat, in vivo
Jak3 = molecular target: T1, Jak3 (Homo sapiens, UniProt P52333); test: Jak3 autokinase activity of immunopurified Jak3 (phosphotyrosine Western blot); format: biochemical; design: immunopurified Jak3 was assayed for Jak3 autokinase activity and tested by phosphotyrosine Western blot; endogenous in cells
T1 sequence (P52333 1-1124): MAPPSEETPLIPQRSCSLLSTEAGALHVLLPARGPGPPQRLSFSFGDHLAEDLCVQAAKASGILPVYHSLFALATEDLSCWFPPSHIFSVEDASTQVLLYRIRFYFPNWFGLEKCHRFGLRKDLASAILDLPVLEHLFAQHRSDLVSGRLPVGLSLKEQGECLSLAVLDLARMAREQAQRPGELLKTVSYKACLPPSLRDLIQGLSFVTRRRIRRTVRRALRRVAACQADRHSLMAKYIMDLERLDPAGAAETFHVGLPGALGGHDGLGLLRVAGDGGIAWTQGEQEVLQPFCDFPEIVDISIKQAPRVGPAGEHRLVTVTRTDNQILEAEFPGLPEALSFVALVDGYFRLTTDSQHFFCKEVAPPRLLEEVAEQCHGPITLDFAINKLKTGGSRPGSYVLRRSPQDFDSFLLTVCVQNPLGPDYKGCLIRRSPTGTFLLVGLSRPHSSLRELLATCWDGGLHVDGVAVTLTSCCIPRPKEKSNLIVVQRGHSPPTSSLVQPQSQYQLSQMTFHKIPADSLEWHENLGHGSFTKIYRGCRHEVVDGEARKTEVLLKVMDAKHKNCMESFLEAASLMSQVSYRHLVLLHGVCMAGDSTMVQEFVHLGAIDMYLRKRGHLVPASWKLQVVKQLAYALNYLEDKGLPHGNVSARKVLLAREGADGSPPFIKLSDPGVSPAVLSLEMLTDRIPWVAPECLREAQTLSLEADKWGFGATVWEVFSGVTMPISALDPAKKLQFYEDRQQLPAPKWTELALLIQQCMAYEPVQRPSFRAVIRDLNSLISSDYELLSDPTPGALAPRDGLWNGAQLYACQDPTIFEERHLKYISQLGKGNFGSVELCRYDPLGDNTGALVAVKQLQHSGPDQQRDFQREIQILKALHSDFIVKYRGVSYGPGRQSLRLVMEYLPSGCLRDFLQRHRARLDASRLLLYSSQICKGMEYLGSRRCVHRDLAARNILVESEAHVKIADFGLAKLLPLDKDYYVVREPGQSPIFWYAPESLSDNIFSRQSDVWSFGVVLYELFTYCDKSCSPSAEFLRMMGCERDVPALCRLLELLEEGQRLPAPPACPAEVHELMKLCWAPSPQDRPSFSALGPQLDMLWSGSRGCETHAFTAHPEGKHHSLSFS
Experimental: Immunopurified Jak3 was assayed for Jak3 autokinase activity and tested by phosphotyrosine Western blot in the absence or presence of 100 μM ATP and/or drug and compared to controls.
Referring now to FIG. 8, direct evidence is provided that […] (NC1153) inhibits Jak3 signaling pathways. […] The bands identified as “PY-Jak3” reveal only the active Jak3 at the indicated dosages of NC1153, with or without IL-2 and ATP.

human Jurkat T-cells = test: Growth / DNA synthesis of non-Jak3 expressing Jurkat cells; format: cell-based

CN(C)CC1CCCCCCCCCC(CN(C)C)C1=O (mixture of isomers) [649641P (NC1153)]
Stat5a/b DNA binding (EMSA) (Stat5a/b): inhibits; also recorded: greatly impaired | Stat5a/b DNA binding (EMSA) (Stat5a/b; listed as NC1153): inhibits | bioavailability [1]: ~12.5% | HDL [2]: increased HDL | HDL, LDL, or TG levels [2]: no effect | TG or LDL levels [2]: without changing TG or LDL levels | overall toxicity conclusion [2]: free of nephrotoxic and myelotoxic effects with mild lipotoxicity on high-fat challenge | peripheral blood counts (PBC) [2]: Neither 648641P nor CsA reduced PBC | IC50 (Jak3; 100 μM ATP): ~2.5 µM | inhibition of Jak3 relative to Jak2 in kinase assays (Jak3; FIG. 9B and FIG. 8): At least 50 fold | cell growth / DNA synthesis of Jurkat cells (human Jurkat T-cells): did not inhibit DNA synthesis | cell growth / DNA synthesis of Jurkat cells (human Jurkat T-cells; listed as NC1153): does not block cell growth
